From BindingDB's records for doi:10.1002/cbic.201600636 (The University of Sydney, 2017)

Assays:
Histone deacetylase 1 = Histone deacetylase 1 (Homo sapiens, UniProt Q13547); experiment: Fluorometric Activity Assay
Method: A FLUOR DE LYS fluorometric activity assay kit (HDAC source: HeLa cell nuclear extract) and a FLUOR DE LYS HDAC1 fluorometric drug discovery assay kit (HDAC source: human recombinant HDAC1) were purchased from Enzo Life Sciences (Farmingdale, NY). HDAC inhibition assay was performed according to the instruction manuals. All samples were dissolved in dimethyl sulfoxide, except for 1 and 2, which were dissolved in the assay buffers provided. All assays were performed in triplicate, and errors were calculated as standard deviation.

Lipoxygenase = Lipoxygenase (Solanum tuberosum, UniProt O49150); experiment: Colorimetric 5-LO Assay
Sequence of Lipoxygenase (O49150 whole entry): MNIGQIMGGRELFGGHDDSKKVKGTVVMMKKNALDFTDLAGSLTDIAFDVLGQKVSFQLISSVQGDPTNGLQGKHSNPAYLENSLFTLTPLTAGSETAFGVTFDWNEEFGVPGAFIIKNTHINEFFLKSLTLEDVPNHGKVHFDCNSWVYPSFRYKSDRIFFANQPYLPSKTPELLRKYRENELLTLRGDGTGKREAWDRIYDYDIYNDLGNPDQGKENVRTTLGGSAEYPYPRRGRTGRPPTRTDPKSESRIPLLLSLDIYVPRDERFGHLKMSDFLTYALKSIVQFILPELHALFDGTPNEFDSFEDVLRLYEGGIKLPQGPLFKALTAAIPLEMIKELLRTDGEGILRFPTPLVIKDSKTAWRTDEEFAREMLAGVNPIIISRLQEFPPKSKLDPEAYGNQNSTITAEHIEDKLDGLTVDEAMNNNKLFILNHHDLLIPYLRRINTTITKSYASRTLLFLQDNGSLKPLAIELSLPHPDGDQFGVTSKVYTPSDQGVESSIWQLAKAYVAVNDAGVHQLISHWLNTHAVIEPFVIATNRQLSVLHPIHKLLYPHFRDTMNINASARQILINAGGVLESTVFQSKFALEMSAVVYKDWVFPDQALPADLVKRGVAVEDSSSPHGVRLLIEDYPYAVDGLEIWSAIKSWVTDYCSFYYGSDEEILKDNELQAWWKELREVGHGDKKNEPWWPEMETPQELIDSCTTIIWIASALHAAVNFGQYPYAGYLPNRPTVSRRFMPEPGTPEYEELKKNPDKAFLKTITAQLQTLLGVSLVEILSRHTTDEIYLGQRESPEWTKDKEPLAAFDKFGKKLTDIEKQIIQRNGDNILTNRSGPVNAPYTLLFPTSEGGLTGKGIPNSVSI
Method: A colorimetric 5-LO assay kit (Lipoxygenase Inhibitor Screening Assay Kit) and potato 5-LO isolate were purchased from Cayman Chemicals (Ann Arbor, MI). 5-LO inhibition assay was performed according to the instruction manuals. All samples were dissolved in dimethyl sulfoxide, except for 1 and 2, which were dissolved in the assay buffers provided. All assays were performed in triplicate, and errors were calculated as standard deviation.

Sequence of Histone deacetylase 1 (Q13547 whole entry): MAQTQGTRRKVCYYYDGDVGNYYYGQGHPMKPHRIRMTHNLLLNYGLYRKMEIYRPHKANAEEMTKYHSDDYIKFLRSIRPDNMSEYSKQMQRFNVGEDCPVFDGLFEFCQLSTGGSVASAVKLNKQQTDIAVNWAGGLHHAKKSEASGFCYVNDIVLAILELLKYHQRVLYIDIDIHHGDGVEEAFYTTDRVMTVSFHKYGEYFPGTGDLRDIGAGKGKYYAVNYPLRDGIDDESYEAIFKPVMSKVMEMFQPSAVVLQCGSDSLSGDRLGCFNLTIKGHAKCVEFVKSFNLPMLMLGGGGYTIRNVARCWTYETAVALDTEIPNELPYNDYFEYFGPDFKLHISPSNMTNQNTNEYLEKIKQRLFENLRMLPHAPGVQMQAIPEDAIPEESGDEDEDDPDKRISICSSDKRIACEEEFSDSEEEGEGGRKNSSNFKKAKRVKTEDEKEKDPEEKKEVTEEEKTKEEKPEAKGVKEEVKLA

Row | Compound | IC50 (Histone deacetylase 1) [µM] | IC50 (Lipoxygenase) [µM]
1 | O=C(CCCCCN1C(=O)c2cccc3cccc(c23)C1=O)NO [6-(1,3-Dioxo-1H,3H-benzo[de]isoquinolin-2-yl)-hexanoic acid hydroxyamide] |  | 212
2 | CC(=O)N(O)CCCCCNC(=O)CCC(=O)N(O)CCCCCNC(=O)CCC(=O)N(O)CCCCCN1C(=O)c2cccc3cccc(c23)C1=O [BIQD-substituted compound, S1] | 258 | 
3 | CC(=O)N(O)C/C=C/c1cccc(Oc2ccccc2)c1 [N-(3-phenoxycinnamyl)acetohydroxamic acid] |  | 17.1

The remaining lines, values ahead:

Row | IC50 (Histone deacetylase 1) [µM] | IC50 (Lipoxygenase) [µM] | Compound
4 | 314 | 2340 | CC(=O)N(O)CCCCCNC(=O)CCC(=O)N(O)CCCCCN1C(=O)c2cccc3cccc(c23)C1=O [BIQD-substituted compound, S5]
5 | 172 | 58.9 | CC(=O)N(O)CCCCCN1C(=O)c2cccc3cccc(c23)C1=O [BIQD-substituted compound, S2]
